In patent US5225436A, “Aryl substituted naphthalene derivatives” (Schering Corporation, priority 1991, dated 1993):
Read-outs that look alike come from different tables or passages of the source.

Legend:
5-lipoxygenase = biological target: T1, 5-lipoxygenase (Homo sapiens, UniProt P09917); assay: 5-Lipoxygenase assay with human neutrophils; assay type: cell-based; settings: 5 min, Human PMN, dose 15 μm (μM)
T1 construct: Human polymorphonuclear leukocytes (neutrophils) were obtained from normal healthy volunteers; endogenous in cells; host or cells: human blood neutrophils from healthy volunteers
T1 sequence (P09917 1-674): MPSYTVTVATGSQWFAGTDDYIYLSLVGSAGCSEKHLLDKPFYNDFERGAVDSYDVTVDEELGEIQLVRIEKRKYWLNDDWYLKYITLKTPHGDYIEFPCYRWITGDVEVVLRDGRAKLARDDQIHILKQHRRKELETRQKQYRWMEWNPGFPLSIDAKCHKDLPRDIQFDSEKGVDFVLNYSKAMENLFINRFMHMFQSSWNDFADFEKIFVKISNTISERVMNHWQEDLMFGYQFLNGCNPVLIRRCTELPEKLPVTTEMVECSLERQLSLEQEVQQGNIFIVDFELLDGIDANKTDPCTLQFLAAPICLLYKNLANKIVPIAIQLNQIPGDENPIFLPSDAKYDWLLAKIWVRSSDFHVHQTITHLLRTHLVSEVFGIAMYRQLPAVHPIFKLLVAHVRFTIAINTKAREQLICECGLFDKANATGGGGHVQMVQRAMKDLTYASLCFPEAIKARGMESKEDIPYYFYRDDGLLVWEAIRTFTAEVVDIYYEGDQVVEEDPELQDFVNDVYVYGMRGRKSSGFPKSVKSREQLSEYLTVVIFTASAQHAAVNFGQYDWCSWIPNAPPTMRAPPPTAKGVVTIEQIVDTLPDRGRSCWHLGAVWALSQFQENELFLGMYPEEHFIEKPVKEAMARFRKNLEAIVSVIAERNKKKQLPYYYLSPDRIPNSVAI
Protocol: Human polymorphonuclear leukocytes (neutrophils) were obtained from normal healthy volunteers by venipuncture and collected with heparin anticoagulant. Neutrophils were isolated by Dextran/Ficol sedimentation as described (Billah et al., J. Biol. Chem. 260, 6899-6906 (1985)). In brief, 30 ml of blood was mixed with 5 ml of dextran (Sigma) solution and kept at 37° C. for 30 min. The upper white cell-rich layer was removed and 10 ml was layered on 9 ml of Ficol-Paque solution (Pharmacia) and centrifuged at 280 xg for 10 min. at 5° C. The supernatant was removed and the neutrophil pellet was resuspended in HEPES buffer containing 25 mM N-2-hydroxyethylpiperazine-N^1 -2-ethanesulfonic acid HEPES, 125 mM NaCl, 2.5 mM KCl, 0.7 mM MgCl2, […] 10 mM glucose at pH 7.4. The red cells in the suspension were lysed by hypotonic shock. The neutrophils were washed by centrifugation in HEPES buffer two times and finally resuspended at a concentration of 20×10^6 cells/ml in the presence of 1 mM CaCl2.
Neutrophils (0.2 ml of suspension) were preincubated with dimethylsulfoxide (DMSO) vehicle with or without test compound (1 ul) for 4 minutes then incubated for 5 minutes with [^14 C] arachidonic acid (Amersham, 59 Ci/mole) at a 9 uM final concentration, and the calcium ionophore A23187 (Calbiochem) at a 1 uM final concentration. These stimulants were added in 10 ul of water:ethanol (9:1). The reaction was stopped by addition of methanol (0.4 ml), and cellular debris was removed by centrifugation. Aliquots (100 ul) of the incubations were run on a Waters two pump HPLC system fitted with a DuPont Zorbax ODS, 5u, […] Reliance Cartridge column and C18 "Guard Pak". The column was initially eluted at 2 ml/min with 80% of the mixture water:methanol:acetic acid (46:54:0.08) containing 1 mM EDTA adjusted to pH 6.0 with ammonium hydroxide (Pump A) and 20% methanol (Pump B). At 10 minutes, a linear gradient to reach 100% methanol (Pump B) at 27 minutes was established. Between 27 and 28 minutes, methanol was exchanged for the initial eluting solvent and by 35 minutes the column had been reequilibrated for the next sample. The effluent was analyzed by a continuous flow radioactivity monitor (model ROMONA-D) interfaced with a Hewlett Packard Lab Automation System for quantitation of radioactive products. These were predominantly leukotriene B4 (LTB4) which eluted at 7 minutes, and 5-hydroxyeicosatetraenoic acid (5-HETE) which eluted at 20 minutes.

[1] = tested on: anaphylactic bronchospasm (antigen-induced SRS-A mediated bronchoconstriction); assay: Inhibition of anaphylactic bronchospasm in sensitized guinea pigs; assay type: in vivo, guinea pig; settings: Cavia porcellus, iv, 0.25 h; for inhibition in vivo at 10 mg/kg: read-out: % Inhibition of anaphylactic bronchospasm; for inhibition in vivo at 3 mg/kg: Dose 3 mpk
Protocol: The anti-allergy method of this invention is identified by tests which measure a compound's inhibition of anaphylactic bronchospams-in sensitized guinea pigs having antigen-induced SRS-A mediated bronchoconstriction. Allergic bronchospams was measured in actively sensitized guinea pigs by a modification of the procedure of Konzett and Rossler, Arch. Exptl. Pathol. Pharmakol., 194, pp. 71-74 (1940). Male Hartley guinea pigs were sensitized with 5 mg ovalbumin injected ip and 5 mg injected sc in 1 ml saline on day 1 and 5 mg ovalbumin injected ip on day 4. The sensitized animals were used 3-4 weeks later. To measure anaphylactic bronchospasm, sensitized guinea pigs were fasted overnight and the following morning were anesthetized with 0.9 ml/kp ip dialurethane. The trachea and jugular vein were cannulated and the animals were ventilated by a Harvard rodent respirator. A side arm to the tracheal cannula was connected to a Harvard pressure transducer to obtain a continuous measure of intratracheal pressure. An increase in intratracheal pressure was taken as a measure of bronchoconstriction. Each guinea pig was injected iv with 1 mg/kg propranolol, 5 mg/kg indomethacin and 2 mg/kg mepyramine given together in a volume of […]. Fifteen minutes later, the animals were challenged with antigen (0.5 percent ovalbumin) delivered as an aerosol generated from a DeVilbiss Model 65 ultrasonic nebulizer and delivered through the tracheal cannula for 30 seconds. Bronchoconstriction was measured as the peak increase in intratracheal pressure occurring within 15 minutes after antigen challenge.

[2] = tested on: SRS-A / leukotriene release from antigen-challenged, sensitized guinea pig lung; assay: Inhibition of SRS-A (leukotriene) release from antigen-challenged, sensitized guinea pig lung; assay type: cell-based; design: inhibition: dose or concentration left out as unconfirmed; settings: Cavia porcellus; for inhibition: Dose 30 μm (μM)
Source text: The anti-allergy method of this invention is identified by tests which measure a compound's inhibition of leukotriene release in sensitized guinea pigs. Sensitized guinea pigs are killed by a blow to the head and the lungs removed and cleaned of visible connective tissue, trachea and large blood vessels. The lungs from individual animals are sliced into fragments approximately 1 mm in thickness using a McIlwain tissue chopper and then washed with oxygenated Tyrode's buffer. Weighed aliquots (approximately 400 mg wet weight) of lung are transferred into vials containing 2 ml of fresh Tyrode's solution (containing 10 mM cysteine) and incubated in the presence or absence of test compound for 12 min at 37° C. The tissues are then challenged with 20 μg ovalbumin/ml (final concentration) and incubated for 15 min. To measure leukotriene release, an aliquot of supernatant fluid is extracted with 4 volumes of 100% ethanol. After removal of the precipitated protein, the clear fluid is dried under a stream of N2 gas. The leukotriene content is measured by a radioimmunoassay using [^3 H]LTC4 and antiserum obtained from New England Nuclear. The cross-reactivity of the antiserum for LTD4 is 55%. Percent inhibition of lekotriene release is calculated by comparing for each lung the release in the presence of the test compound to that in the absence of test compound. Representative compounds of the invention at a relative dose of 50 μM of tissue are found to inhibit leukotriene release in the test procedure as indicated below in Table 1: […]

Structure (SMILES) | inhibition at 15 µM (5-lipoxygenase; read-out: % Inhibition 5-HETE) | inhibition at 15 µM (5-lipoxygenase; read-out: % Inhibition LTB) | inhibition in vivo at 10 mg/kg ([1]; Dose 10 mpk) | inhibition [2] | inhibition in vivo at 3 mg/kg [1] | inhibition at 10 µM [2] | inhibition in vivo at 10 mg/kg [1]
COc1cc(OC)c2c(c1)C(C)(C)C(c1ccc(OC)c(OC)c1)CCC2=O (stereo not drawn) [drawing 90 [X=O; W=H; J=H]] | 51% | 45% | 56% | 78% |  |  | 
COc1cc(OC)c2c(c1)C(C)(C)C(c1ccc(OC)c(OC)c1)CC(=O)C2 (stereo not drawn) [drawing 89 [X=CH2; R3/R4=O; P=OCH3]] | 87% | 97% | 0% | 47% |  |  | 
COc1cc(OC)c2c(c1)C(C)(C)C(c1ccc(OC)c(OC)c1)CC2=NOC(=O)C(C)(C)C (stereo not drawn) |  |  | 20% |  |  |  | 
COc1cc(OC)c2c(c1)C(C)(C)C(c1ccc(OC)c(OC)c1)CC(=O)N2 (stereo not drawn) [drawing 89 [X=NH; R3/R4=O; P=OCH3]] | 0% | 2% |  | 65% | 20% |  | 
COc1cc(OC)c2c(c1)C(C)(C)C(c1ccc(OC)c(OC)c1)CC(C)C2=O (stereo not drawn) [drawing 90 [X=O; W=H; J=CH3]] | 28% |  | 53% | 61% |  |  | 
COc1cc(O)c2c(c1)C(C)(C)C(c1ccc(OC)c(OC)c1)CC2=NO (stereo not drawn) | 42% |  | 0% |  |  |  | 
COc1cc(OC)c2c(c1)C(C)(C)C(c1ccc(OC)c(OC)c1)=C(C)C2=O | 1% | 0% | 24% |  |  | 20% | 
COc1cc(OC)c2c(c1)C(C)(C)C(c1ccc(OC)c(OC)c1)CCN2 (stereo not drawn) [drawing 89 [X=NH; R3/R4=H,H; P=OCH3]] | 39% | 63% | 34% | 45% |  |  | 
COc1cc(OC)c2c(c1)C(C)(C)C(c1ccc(OC)c(OC)c1)CCC2=NO (stereo not drawn) [drawing 90 [X=NOH; W=H; J=H]] | 2% |  | 10% | 58% |  |  | 
CCOc1cc(OC)cc2c1C(=NO)CC(c1ccc(OC)c(OC)c1)C2(C)C (stereo not drawn) |  |  |  |  | 25% |  | 
COc1cc(OC)c2c(c1)C(C)(C)C(c1ccc(OC)c(OC)c1)CC2=NNC(N)=O (stereo not drawn) | 2% | 0% | 20% |  |  | 1% | 
COc1cc(OC)c2c(c1)C(C)(C)C(c1ccc(OC)c(OC)c1)CC(=NO)C2 (stereo not drawn) [drawing 89 [X=CH2; R3/R4=NOH; P=OCH3]] | 87% |  |  | 46% | 0% |  | 
COc1cc(OC)c2c(c1)C(C)(C)C(c1ccc(OC)c(OC)c1)CC(=O)O2 (stereo not drawn) [drawing 89 [X=O; R3/R4=O; P=OCH3]] | 9% |  | 4% | 59% |  |  | 
COc1ccc2c(c1)C(C)(C)C(c1ccc(OC)c(OC)c1)CCN2 (stereo not drawn) [drawing 89 [X=NH; R3/R4=H,H; P=H]] | 73% |  | 42% | 57% |  |  | 
CN(C)C(=O)Oc1cc(OC(=O)N(C)C)c2c(c1)C(C)(C)C(c1ccc(OC(=O)N(C)C)c(OC(=O)N(C)C)c1)=CC2=O |  |  |  |  |  |  | 10%
COc1cc(OC)c2c(c1)C(C)(C)C(c1ccc(OC)c(OC)c1)=CC2=NO | 0% | 9% | 0% | 0% |  |  | 
